Experimental data as given in US20260285850A1, “SUBSTITUTED OXAZOLIDINONES AND IMIDAZOLINONES AS HERBICIDES” (FMC CORPORATION, priority 2023, published 2026).

Assays:
Assay type in all cases: in vivo
corn (Zea mays) [1] = test: Test A postemergence application, visual injury rating 0-100; details: 10 days
How it was run: (§1)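 Compound in a non-phytotoxic, surfactant-containing solvent is applied either as a directed soil spray before seedlings emerge or onto emerged plants 2-10 cm tall; pots hold a loam-sand blend. Plants grow 10 days under greenhouse conditions and are rated by eye against untreated controls (0 no effect, 100 complete control).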

[2] = tested on: ryegrass, Italian (italian ryegrass, Lolium multiflorum); test: as above; details: 10 days
How it was run: as §1

[3] = tested on: wheat (Triticum aestivum); test: as above; details: 10 days
How it was run: as §1

[4] = tested on: galium (catchweed bedstraw, Galium aparine); test: as above; details: 10 days
How it was run: as §1

[5] = tested on: ragweed (common ragweed, Ambrosia artemisiifolia); test: as above; details: 10 days
How it was run: as §1

[6] = tested on: barnyardgrass (Echinochloa crus-galli); test: as above; details: 10 days
How it was run: as §1

[7] = tested on: palmer (palmer amaranth, palmer pigweed, Amaranthus palmeri); test: as above; details: 10 days
How it was run: as §1

[8] = tested on: oat, wild (wild oat, Avena fatua); test: as above; details: 10 days
How it was run: as §1

[9] = tested on: horseweed (Erigeron canadensis); test: as above; details: 10 days
How it was run: as §1

soybean (Glycine max) [10] = test: as above; details: 10 days
How it was run: as §1

[11] = tested on: blackgrass (Alopecurus myosuroides); test: as above; details: 10 days
How it was run: as §1

kochia (Bassia scoparia) [12] = test: as above; details: 10 days
How it was run: as §1

[13] = tested on: green foxtail (Setaria viridis); test: as above; details: 10 days
How it was run: as §1

corn (Zea mays) [14] = test: Test A preemergence soil spray, visual injury rating 0-100; details: 10 days, 0 = no effect, 100 = complete control
How it was run: as §1

[15] = tested on: ryegrass, Italian (italian ryegrass, Lolium multiflorum); test: as above; details: 10 days, 0 = no effect, 100 = complete control
How it was run: as §1

[16] = tested on: wheat (Triticum aestivum); test: as above; details: 10 days, 0 = no effect, 100 = complete control
How it was run: as §1

[17] = tested on: ragweed (common ragweed, Ambrosia artemisiifolia); test: as above; details: 10 days, 0 = no effect, 100 = complete control
How it was run: as §1

[18] = tested on: barnyardgrass (Echinochloa crus-galli); test: as above; details: 10 days, 0 = no effect, 100 = complete control
How it was run: as §1

[19] = tested on: palmer (palmer amaranth, palmer pigweed, Amaranthus palmeri); test: as above; details: 10 days, 0 = no effect, 100 = complete control
How it was run: as §1

[20] = tested on: oat, wild (wild oat, Avena fatua); test: as above; details: 10 days, 0 = no effect, 100 = complete control
How it was run: as §1

soybean (Glycine max) [21] = test: as above; details: 10 days, 0 = no effect, 100 = complete control
How it was run: as §1

[22] = tested on: blackgrass (Alopecurus myosuroides); test: as above; details: 10 days, 0 = no effect, 100 = complete control
How it was run: as §1

kochia (Bassia scoparia) [23] = test: as above; details: 10 days, 0 = no effect, 100 = complete control
How it was run: as §1

[24] = tested on: green foxtail (Setaria viridis); test: as above; details: 10 days, 0 = no effect, 100 = complete control
How it was run: as §1

rice (Oryza sativa) = test: Test B flooded paddy test, visual plant response rating 0-100; details: 250 g ai/ha, Flood, applied to paddy water, evaluated after 13 days
How it was run: (§2)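 Plants were grown to the 2-leaf stage, then pots were flooded to 3 cm above the soil and compound was applied directly to the paddy water, with that depth kept throughout.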

[25] = tested on: sedge, umbrella (small-flower umbrella sedge, Cyperus difformis); test: as above; details: 250 g ai/ha, Flood, applied to paddy water, evaluated after 13 days
How it was run: as §2

[26] = tested on: barnyardgrass (Echinochloa crusgalli); test: as above; details: 250 g ai/ha, Flood, applied to paddy water, evaluated after 13 days
How it was run: as §2

[27] = tested on: ducksalad (Heteranthera limosa); test: as above; details: 250 g ai/ha, Flood, applied to paddy water, evaluated after 13 days
How it was run: as §2

[28] = 31 g ai/ha, postemergence, 0 = no effect, 100 = complete control
[29] = Postemergence, 125 g ai/ha, 0 is no effect, 100 is complete control

CC1(C(=O)NC2C=CC(C(=O)O)C2)CN(c2cc(Cl)cc(Cl)c2)C(=O)O1 (stereo not shown) [Compound 62]
90: Ryegrass, Italian plant response rating (0-100) [2, 28] | Wheat plant response rating (0-100) [3, 28] | Wheat plant response rating (0 to 100 scale) [3, 29] | Ragweed plant response rating (0 to 100 scale) [5, 29] | Amaranth, Palmer plant response rating (0-100) [7, 28] | Amaranth, Palmer / Pigweed, Palmer plant response rating (0 to 100 scale) [7, 29] | Oat, Wild plant response rating (0-100) [8, 28] | Oat, Wild plant response rating (0 to 100 scale) [8, 29] | Soybean plant response rating (0 to 100 scale) (soybean (Glycine max) [10]; [29]) | Blackgrass plant response rating (0-100) [11, 28] | Foxtail, Green plant response rating (0-100) [13, 28] | Foxtail, Green plant response rating (0 to 100 scale) [13, 29] | Wheat plant response rating (0 to 100 scale) ([16]; 125 g ai/ha) | Amaranth, Palmer plant response rating (0-100) ([19]; 31 g ai/ha) | Kochia plant response rating (0 to 100 scale) (kochia (Bassia scoparia) [23]; 125 g ai/ha) | Foxtail, Green plant response rating (0 to 100 scale) ([24]; 125 g ai/ha) | Plant response rating, Ducksalad (0 to 100 scale, 0 is no effect and 100 is complete control) [27]
20: Ragweed plant response rating (0 to 100 scale) ([17]; 125 g ai/ha)
60: Ryegrass, Italian plant response rating (0-100) ([15]; 31 g ai/ha) | Soybean plant response rating (0 to 100 scale) (soybean (Glycine max) [21]; 125 g ai/ha)
40: Ragweed plant response rating (0-100) [5, 28] | Oat, Wild plant response rating (0-100) ([20]; 31 g ai/ha)
30: Corn plant response rating (0-100) (corn (Zea mays) [14]; 31 g ai/ha) | Ragweed plant response rating (0-100) ([17]; 31 g ai/ha) | Blackgrass plant response rating (0-100) ([22]; 31 g ai/ha) | Kochia plant response rating (0-100) (kochia (Bassia scoparia) [23]; 31 g ai/ha)
15: Plant response rating, Rice (0 to 100 scale, 0 is no effect and 100 is complete control) (rice (Oryza sativa))
50: Horseweed plant response rating (0-100) [9, 28] | Plant response rating, Barnyardgrass (0 to 100 scale, 0 is no effect and 100 is complete control) [26]
70: Horseweed plant response rating (0 to 100 scale) [9, 29] | Kochia plant response rating (0-100) (kochia (Bassia scoparia) [12]; [28]) | Oat, Wild plant response rating (0 to 100 scale) ([20]; 125 g ai/ha) | Blackgrass plant response rating (0 to 100 scale) ([22]; 125 g ai/ha)
80: Galium plant response rating (0-100) [4, 28] | Galium plant response rating (0 to 100 scale) [4, 29] | Soybean plant response rating (0-100) (soybean (Glycine max) [10]; [28]) | Kochia plant response rating (0 to 100 scale) (kochia (Bassia scoparia) [12]; [29]) | Corn plant response rating (0 to 100 scale) (corn (Zea mays) [14]; 125 g ai/ha) | Ryegrass, Italian plant response rating (0 to 100 scale) ([15]; 125 g ai/ha) | Wheat plant response rating (0-100) ([16]; 31 g ai/ha) | Barnyardgrass plant response rating (0-100) ([18]; 31 g ai/ha) | Foxtail, Green plant response rating (0-100) ([24]; 31 g ai/ha)
98: Plant response rating, Sedge, Umbrella (0 to 100 scale, 0 is no effect and 100 is complete control) [25]
0: Soybean plant response rating (0-100) (soybean (Glycine max) [21]; 31 g ai/ha)
100: Corn plant response rating (0-100) (corn (Zea mays) [1]; [28]) | Corn plant response rating (0 to 100 scale) (corn (Zea mays) [1]; [29]) | Ryegrass, Italian plant response rating (0 to 100 scale) [2, 29] | Barnyardgrass plant response rating (0-100) [6, 28] | Barnyardgrass plant response rating (0 to 100 scale) [6, 29] | Blackgrass plant response rating (0 to 100 scale) [11, 29] | Barnyardgrass plant response rating (0 to 100 scale) ([18]; 125 g ai/ha) | Amaranth, Palmer plant response rating (0 to 100 scale) ([19]; 125 g ai/ha)
